Patent US20230348487A1, “2-AMINOPYRIMIDINE COMPOUND AND PHARMACEUTICAL COMPOSITION THEREOF AND APPLICATION THEREOF” (GUANGZHOU SALUSTIER BIOSCIENCES CO., LTD., priority 2021, published 2023)
Several values for one entry are separate records, joined by “and”; a condition that tells them apart may be missing. Equal values may be shown once. Read-outs that look alike come from different tables or passages of the source.

Legend:
[1] = target: JAK3 (Homo sapiens (Human), UniProt P52333); test: Z′-Lyte kinase inhibitory activity test; format: biochemical; details: for JAK3 kinase inhibitory activity and selectivity (in words): summary of Table 3, activity maintained at ATP 1 mM
Experimental: (§1) Test method: Firstly, test compounds were prepared into 10 mM stock solution with DMSO, and continuously diluted into 10 concentrations at a 3-fold gradient for later use. 5X reaction buffer was diluted with deionized water into 1×reaction buffer (50 mM HEPES pH 7.5, 0.01% Brij-35, 10 mM MgCl2, 1 mM EGTA), which was used to prepare a mixture of kinase and peptide substrate, as well as a phosphorylated peptide substrate solution. The kinase concentration was determined based on enzyme titration, and the final concentration of peptide substrate and phosphorylated peptide substrate was 2 μM. 5 μL of mixture substrate of kinase and peptide substrate was added to each well on the 384 well plate. Then 5 nL of the test compound (starting with a final concentration of 10 μM) was added with an Echo520 Sampler. […] An additional 100% phosphorylation well (5 μL phosphorylated peptide substrate solution), a 0% phosphorylated well (5 μL of a mixture of kinase and peptide substrate, without test compounds and ATP), and a 0% inhibitory well (5 μL of a mixture of kinase and peptide substrate and appropriate concentration of ATP) were set as control. Two repeats were set for each concentration. The above reaction system was incubated at 30° C. for 1.5 hours. […] 2.5 μL of the diluted mixture was added to each well and the system was incubated at 30° C. for another 1 hour. […] The substrate phosphorylation rate was obtained by calculating the ratio, and the activity of the kinase and the effect of the inhibitor on the kinase was further calculated. Every experiment was repeated at least three times.

[2] = target: JAK1 (Homo sapiens (Human), UniProt P23458); test: Z′-Lyte kinase inhibitory activity test; format: biochemical; details: ATP concentration Km
Experimental: as §1

[3] = target: JAK2 (Homo sapiens (Human), UniProt O60674); test: Z′-Lyte kinase inhibitory activity test; format: biochemical
Experimental: as §1

[4] = target: TYK2 (Homo sapiens (Human), UniProt P29597); test: Z′-Lyte kinase inhibitory activity test; format: biochemical; details: ATP concentration Km
Experimental: as §1

[5] = tested on: human acute myeloid leukemia cell line U937; test: CCK-8 in vitro proliferation inhibition; format: cell-based; details: read-out: Inhibitory activity (IC50) on cell proliferation, U937
Experimental: (§2) Cell lines: human chronic myeloid leukemia cell line K562, human acute myeloid leukemia cell line U937, human T lymphocyte leukemia cell line HuT78, and human T lymphoblastic lymphoma cell line Jurkat. Cells were purchased from the Chinese Academy of Sciences Stem Cell Bank or ATCC.
(§3) […] were cultured overnight and suspended cells were directly stimulated with drugs. […] Two repeats were set for each concentration, with a final volume of 200 μL. […] The absorbance values at 450 nm and 650 nm were measured using a microplate reader, and the increment Z (A450-A650) was derived. The inhibitory rate of drugs on cell growth was calculated by GraphPad Prism 8.0.0 through the following formula:
(§4) Inhibition rate (%)(ODcontrol−ODdosing)/ODcontrol×100%
(§5) The half inhibitory concentration (IC50) was calculated. Every experiment was repeated at least three times.

[6] = tested on: human T lymphocyte leukemia cell line HuT78; test: CCK-8 in vitro proliferation inhibition; format: cell-based; details: Homo sapiens, HuT78, 72 hours, read-out: Inhibitory activity (IC50) on cell proliferation, HUT78
Experimental: as §2, §3, §4, §5

[7] = tested on: human T lymphoblastic lymphoma cell line Jurkat; test: CCK-8 in vitro proliferation inhibition; format: cell-based; details: Homo sapiens, Jurkat, 72 hours, read-out: Inhibitory activity (IC50) on cell proliferation, JURKAT
Experimental: as §2, §3, §4, §5

[8] = tested on: human chronic myeloid leukemia cell line K562; test: CCK-8 in vitro proliferation inhibition; format: cell-based; details: read-out: Inhibitory activity (IC50) on cell proliferation, K562
Experimental: as §2, §3, §4, §5

TYK2, sequence (P29597 whole entry): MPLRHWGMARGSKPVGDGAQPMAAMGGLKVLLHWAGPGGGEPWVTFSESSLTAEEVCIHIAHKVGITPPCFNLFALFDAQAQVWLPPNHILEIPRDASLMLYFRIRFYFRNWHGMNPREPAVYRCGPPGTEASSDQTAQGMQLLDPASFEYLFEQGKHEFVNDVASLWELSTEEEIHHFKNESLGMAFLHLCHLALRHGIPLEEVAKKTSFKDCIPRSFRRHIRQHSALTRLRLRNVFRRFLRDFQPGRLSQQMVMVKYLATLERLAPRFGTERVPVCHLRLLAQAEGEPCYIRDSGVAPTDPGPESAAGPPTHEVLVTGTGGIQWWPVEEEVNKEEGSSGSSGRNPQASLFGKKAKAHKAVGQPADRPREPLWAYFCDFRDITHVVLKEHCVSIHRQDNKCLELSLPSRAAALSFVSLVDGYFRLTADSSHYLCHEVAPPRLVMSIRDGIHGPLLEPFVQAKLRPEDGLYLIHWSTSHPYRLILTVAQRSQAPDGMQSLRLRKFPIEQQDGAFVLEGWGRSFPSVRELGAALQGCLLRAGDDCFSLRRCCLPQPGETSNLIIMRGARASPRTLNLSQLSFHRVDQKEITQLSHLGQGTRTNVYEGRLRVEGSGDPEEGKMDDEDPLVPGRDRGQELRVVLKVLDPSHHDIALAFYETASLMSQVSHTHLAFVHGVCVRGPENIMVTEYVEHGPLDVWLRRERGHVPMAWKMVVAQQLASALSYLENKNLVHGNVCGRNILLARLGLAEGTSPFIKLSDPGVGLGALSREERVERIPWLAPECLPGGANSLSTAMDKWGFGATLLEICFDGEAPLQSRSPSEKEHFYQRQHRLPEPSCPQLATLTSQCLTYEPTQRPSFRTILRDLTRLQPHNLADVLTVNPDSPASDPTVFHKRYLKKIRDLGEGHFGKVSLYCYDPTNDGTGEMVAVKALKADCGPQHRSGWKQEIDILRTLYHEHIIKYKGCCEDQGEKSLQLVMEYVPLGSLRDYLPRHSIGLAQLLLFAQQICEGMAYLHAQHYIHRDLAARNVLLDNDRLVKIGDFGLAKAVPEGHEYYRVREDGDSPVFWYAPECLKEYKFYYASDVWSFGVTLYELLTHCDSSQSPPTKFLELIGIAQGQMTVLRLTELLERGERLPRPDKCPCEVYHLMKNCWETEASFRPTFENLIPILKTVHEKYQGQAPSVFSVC
JAK3, sequence (P52333 whole entry): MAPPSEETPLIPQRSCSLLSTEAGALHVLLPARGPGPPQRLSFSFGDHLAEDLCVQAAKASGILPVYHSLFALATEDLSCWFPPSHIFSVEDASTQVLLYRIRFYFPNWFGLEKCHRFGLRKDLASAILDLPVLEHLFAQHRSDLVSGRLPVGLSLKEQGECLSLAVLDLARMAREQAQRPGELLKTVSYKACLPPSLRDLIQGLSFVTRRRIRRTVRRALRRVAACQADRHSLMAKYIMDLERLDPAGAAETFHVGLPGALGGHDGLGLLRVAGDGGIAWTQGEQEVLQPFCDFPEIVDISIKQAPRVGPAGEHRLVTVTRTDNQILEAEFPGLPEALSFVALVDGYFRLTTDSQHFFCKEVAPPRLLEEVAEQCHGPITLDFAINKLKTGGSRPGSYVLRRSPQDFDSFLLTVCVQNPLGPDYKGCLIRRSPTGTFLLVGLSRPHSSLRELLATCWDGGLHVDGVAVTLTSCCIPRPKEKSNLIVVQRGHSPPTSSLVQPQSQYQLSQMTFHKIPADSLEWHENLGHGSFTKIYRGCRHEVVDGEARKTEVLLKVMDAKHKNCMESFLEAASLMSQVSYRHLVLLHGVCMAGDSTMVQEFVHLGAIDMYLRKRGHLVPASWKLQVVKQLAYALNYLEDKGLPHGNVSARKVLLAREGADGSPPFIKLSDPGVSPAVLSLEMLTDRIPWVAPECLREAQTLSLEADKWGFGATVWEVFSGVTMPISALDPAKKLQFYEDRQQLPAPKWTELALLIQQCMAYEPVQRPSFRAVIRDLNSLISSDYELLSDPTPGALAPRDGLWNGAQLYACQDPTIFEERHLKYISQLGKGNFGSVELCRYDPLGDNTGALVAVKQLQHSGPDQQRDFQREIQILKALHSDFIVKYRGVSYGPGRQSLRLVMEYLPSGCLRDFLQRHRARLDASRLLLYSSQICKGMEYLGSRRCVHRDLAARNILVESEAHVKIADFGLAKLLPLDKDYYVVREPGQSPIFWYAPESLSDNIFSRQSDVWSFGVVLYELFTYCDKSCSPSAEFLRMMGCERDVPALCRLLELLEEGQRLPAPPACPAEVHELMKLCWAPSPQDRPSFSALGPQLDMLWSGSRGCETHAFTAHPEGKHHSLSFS
JAK2, sequence (O60674 whole entry): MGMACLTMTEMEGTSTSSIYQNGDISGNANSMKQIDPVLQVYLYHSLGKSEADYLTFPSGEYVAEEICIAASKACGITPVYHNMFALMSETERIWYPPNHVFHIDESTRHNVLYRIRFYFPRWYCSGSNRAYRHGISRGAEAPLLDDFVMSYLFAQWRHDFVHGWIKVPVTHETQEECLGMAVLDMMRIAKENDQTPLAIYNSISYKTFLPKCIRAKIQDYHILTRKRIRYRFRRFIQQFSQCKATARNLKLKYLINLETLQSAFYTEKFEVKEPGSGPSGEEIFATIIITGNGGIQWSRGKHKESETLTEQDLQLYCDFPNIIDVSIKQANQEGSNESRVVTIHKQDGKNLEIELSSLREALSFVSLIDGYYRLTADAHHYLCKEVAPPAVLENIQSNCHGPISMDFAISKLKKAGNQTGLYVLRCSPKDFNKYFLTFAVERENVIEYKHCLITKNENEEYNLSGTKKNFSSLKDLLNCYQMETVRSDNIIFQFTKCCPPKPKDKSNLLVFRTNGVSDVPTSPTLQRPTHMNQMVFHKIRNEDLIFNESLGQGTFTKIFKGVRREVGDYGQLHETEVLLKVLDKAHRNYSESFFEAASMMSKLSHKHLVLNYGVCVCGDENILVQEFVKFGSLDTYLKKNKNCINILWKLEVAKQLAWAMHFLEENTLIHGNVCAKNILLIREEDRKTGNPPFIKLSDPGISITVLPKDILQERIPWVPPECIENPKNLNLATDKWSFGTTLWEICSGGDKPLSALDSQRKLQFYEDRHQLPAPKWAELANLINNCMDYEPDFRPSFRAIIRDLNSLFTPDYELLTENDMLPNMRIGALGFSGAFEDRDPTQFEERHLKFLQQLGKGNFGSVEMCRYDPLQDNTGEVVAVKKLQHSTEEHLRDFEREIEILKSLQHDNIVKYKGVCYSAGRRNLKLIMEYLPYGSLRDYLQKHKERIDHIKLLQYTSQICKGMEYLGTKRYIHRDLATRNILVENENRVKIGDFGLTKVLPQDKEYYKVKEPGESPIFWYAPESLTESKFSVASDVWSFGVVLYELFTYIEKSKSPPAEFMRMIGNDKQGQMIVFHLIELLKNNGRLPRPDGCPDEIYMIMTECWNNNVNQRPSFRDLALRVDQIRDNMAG
JAK1, sequence (P23458 whole entry): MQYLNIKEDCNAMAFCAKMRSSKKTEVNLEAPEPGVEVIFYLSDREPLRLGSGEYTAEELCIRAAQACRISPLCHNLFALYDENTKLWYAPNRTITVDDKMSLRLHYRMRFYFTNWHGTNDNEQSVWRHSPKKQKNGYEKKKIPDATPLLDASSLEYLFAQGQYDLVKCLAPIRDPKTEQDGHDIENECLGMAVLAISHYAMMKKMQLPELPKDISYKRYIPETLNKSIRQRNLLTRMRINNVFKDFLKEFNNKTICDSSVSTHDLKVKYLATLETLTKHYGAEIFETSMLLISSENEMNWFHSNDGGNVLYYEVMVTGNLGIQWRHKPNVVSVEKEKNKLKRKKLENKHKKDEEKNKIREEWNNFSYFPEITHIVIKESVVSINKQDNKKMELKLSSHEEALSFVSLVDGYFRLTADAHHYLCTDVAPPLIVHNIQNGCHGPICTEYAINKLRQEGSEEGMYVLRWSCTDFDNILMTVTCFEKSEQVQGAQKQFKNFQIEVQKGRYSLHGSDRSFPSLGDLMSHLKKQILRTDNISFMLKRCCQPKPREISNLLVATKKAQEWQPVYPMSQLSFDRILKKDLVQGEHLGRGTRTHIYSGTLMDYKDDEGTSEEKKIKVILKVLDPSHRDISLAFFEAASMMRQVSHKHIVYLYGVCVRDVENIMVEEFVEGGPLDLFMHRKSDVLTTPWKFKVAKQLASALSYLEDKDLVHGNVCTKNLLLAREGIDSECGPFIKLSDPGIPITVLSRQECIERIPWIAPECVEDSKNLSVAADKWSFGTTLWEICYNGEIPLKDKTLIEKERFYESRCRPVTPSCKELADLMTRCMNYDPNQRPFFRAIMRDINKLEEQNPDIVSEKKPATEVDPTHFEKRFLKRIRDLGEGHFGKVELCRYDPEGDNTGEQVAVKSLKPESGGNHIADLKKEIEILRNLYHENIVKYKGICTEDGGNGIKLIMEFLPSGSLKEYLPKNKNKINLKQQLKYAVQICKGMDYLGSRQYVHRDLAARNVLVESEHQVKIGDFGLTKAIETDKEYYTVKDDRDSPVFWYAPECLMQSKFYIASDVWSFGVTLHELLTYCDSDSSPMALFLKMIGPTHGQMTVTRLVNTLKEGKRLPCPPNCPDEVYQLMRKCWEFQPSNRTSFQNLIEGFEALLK

IC50 ([1]; ATP concentration Km) [µM]	IC50 [2] [µM]	IC50 ([1]; ATP concentration 1 mM) [µM]	IC50 ([3]; ATP concentration Km) [µM]	IC50 [4] [nM]	IC50 ([5]; Homo sapiens, U-937, 72 hours) [nM]	IC50 ([8]; Homo sapiens, K562, 72 hours) [nM]	Structure (SMILES)	other results
0.0013	8.6	0.0019	1.89	1660	29.9		C=CC(=O)Nc1cc(Nc2ncc(Cl)c(O[C@@H]3CO[C@H]4[C@@H]3OC[C@H]4OCC)n2)ccc1N(C)CCN(C)C [LS 7-13]	JAK3 kinase inhibitory activity and selectivity (in words) [1]: strong and selective JAK3 kinase inhibitory activity
0.0015	0.19	0.00129		148	19.6	47.2	C=CC(=O)Nc1cc(Nc2ncc(Cl)c(O[C@@H]3CO[C@H]4[C@@H]3OC[C@H]4O)n2)ccc1N1C[C@@H]2C[C@H]1CO2 [LS 5-152, N-(2-(((1S,4S)-2-oxa-5-azabicyclic[2.2.1]heptane-5-yl)-5-(5-chloro-4-(((3R,3aR,6R, 6aR)-6-hydroxyhexahydrofurano[3,2-b]furan-3-yl)oxygen)pyrimidin-2-yl)amino)phenyl) acrylamide]	IC50 [6]: 428 nM; IC50 [7]: 288 nM
0.00387	2.75	0.0261	1.13	637	403	1550	C=CC(=O)Nc1cc(Nc2ncc(Cl)c(O[C@@H]3CO[C@H]4[C@@H]3OC[C@H]4OC)n2)ccc1N1CCOCC1 [LS 6-48]	
0.00634	0.685		0.417	313			C=CC(=O)Nc1cc(Nc2ncc(C)c(O[C@@H]3CO[C@H]4[C@@H]3OC[C@H]4O)n2)ccc1N1CCC(N2CCN(C)CC2)CC1 [LS 5-133, N-(5-((4-(((3R,3aR,6R, 6aR)-6-hydroxyhexahydrofurano[3,2-b]furan-3-yl)oxygen)-5-methylpyrimidin-2-yl)amino)-2-(4-(4-methylpiperazin-1-yl)piperidin-1-yl)phenyl) acrylamide]	
0.133					5380	376	C=CC(=O)Nc1cc(Nc2ncc(Cl)c(O[C@@H]3CO[C@H]4[C@@H]3OC[C@H]4O)n2)c(OC)cc1N1CCC(N2CCN(C)CC2)CC1 [LS 5-3]	IC50 ([2]; in μM): > 10 µM; IC50 ([3]; ATP concentration Km, in μM): > 10 µM; IC50 [6]: 8080 nM; IC50 [7]: 8670 nM
0.141	0.354		0.949				CN1CCN(C2CCN(c3c(Cl)cc(Nc4ncc(Cl)c(O[C@@H]5CO[C@H]6[C@@H]5OC[C@H]6O)n4)cc3Cl)CC2)CC1 [LS 5-16]	
0.12	0.161		0.67				N#CC1(c2ccc(Nc3ncc(Cl)c(O[C@@H]4CO[C@H]5[C@@H]4OC[C@H]5O)n3)cc2)CCCC1 [LS 5-58]	
0.00402	12.6	0.00714	1.67	912	146	525	C=CC(=O)Nc1cc(Nc2ncc(Cl)c(O[C@@H]3CO[C@H]4[C@@H]3OC[C@@H]4F)n2)ccc1N1CCN(CC)CC1 [LS 6-78]	
0.00426	15.6	0.00654	1.71	805	171	620	C=CC(=O)Nc1cc(Nc2ncc(Cl)c(O[C@@H]3CO[C@H]4[C@@H]3OC[C@H]4F)n2)ccc1N1CCN(CC)CC1 [LS 6-89]	
0.0015		0.0023	2.66	4420	44		C=CC(=O)Nc1cc(Nc2ncc(Cl)c(O[C@@H]3CO[C@H]4[C@@H]3OC[C@H]4OC(C)C)n2)ccc1N(C)CCN(C)C [LS 7-18]	IC50 ([2]; in μM): > 10 µM; JAK3 kinase inhibitory activity and selectivity (in words) [1]: strong and selective JAK3 kinase inhibitory activity
0.00128	33.9	0.00155	2.47	921	40.7	906	C=CC(=O)Nc1cc(Nc2ncc(Cl)c(O[C@@H]3CO[C@H]4[C@@H]3OC[C@@H]4F)n2)ccc1N(C)CCN(C)C [LS 6-77]	JAK3 kinase inhibitory activity and selectivity (in words) [1]: strong and selective JAK3 kinase inhibitory activity
5.75							CCN1CCN(Cc2ccc(Nc3ncc(Cl)c(O[C@@H]4CO[C@H]5[C@@H]4OC[C@H]5O)n3)nc2)CC1 [LS 5-54]	IC50 ([2]; in μM): > 10 µM; IC50 ([3]; ATP concentration Km, in μM): > 10 µM
0.0017	4.69	0.00292	1.1	1190	79.4	371	C=CC(=O)Nc1cc(Nc2ncc(Cl)c(O[C@@H]3CO[C@H]4[C@@H]3OC[C@H]4OC)n2)ccc1N1CCN(C)[C@@H](C)C1 [LS 6-49]	JAK3 kinase inhibitory activity and selectivity (in words) [1]: strong and selective JAK3 kinase inhibitory activity

Second part, the compound before the results:

Structure (SMILES)	IC50 ([1]; ATP concentration Km) [µM]	IC50 [2] [µM]	IC50 ([1]; ATP concentration 1 mM) [µM]	IC50 ([3]; ATP concentration Km) [µM]	IC50 [4] [nM]	IC50 ([5]; Homo sapiens, U-937, 72 hours) [nM]	IC50 ([8]; Homo sapiens, K562, 72 hours) [nM]	other results
Cc1cc(Nc2ncc(Cl)c(O[C@@H]3CO[C@H]4[C@@H]3OC[C@H]4O)n2)cnc1N1CCC(N2CCN(C)CC2)CC1 [LS 4-150]	0.084							
CN1CCN(C2CCN(c3ccc(Nc4ncc(Cl)c(O[C@@H]5CO[C@H]6[C@@H]5OC[C@@H]6O)n4)cc3Cl)CC2)CC1 [LS 4-97]				0.406				
CN1CCN(C2CCN(c3ccc(Nc4ncc(Cl)c(O[C@@H]5CO[C@H]6[C@@H]5OC[C@H]6O)n4)cc3Cl)CC2)CC1 [LS 4-104]				0.291			542	IC50 [6]: 2420 nM; IC50 [7]: 2050 nM
C=CC(=O)Nc1cc(Nc2ncc(Cl)c(O[C@@H]3CO[C@H]4[C@@H]3OC[C@@H]4F)n2)ccc1N1CCC(N2CCN(C)CC2)CC1 [LS 6-59]		7.04			435			IC50 [3]: 1.08 µM; IC50 ([5]; 72 hours): 129 nM; IC50 ([8]; 72 hours): 281 nM
COc1cc(Nc2ncc(Cl)c(O[C@H]3CO[C@H]4[C@@H]3OC[C@H]4O)n2)ccc1N1CCN(C)CC1 [LS 4-106]	0.638							
C=CC(=O)Nc1cc(Nc2ncc(Cl)c(O[C@@H]3CO[C@@H]4CCO[C@@H]43)n2)ccc1N(C)CCN(C)C [LS 6-121]		2.93			278			IC50 [1]: 0.0014 µM and 0.0016 µM; JAK3 kinase inhibitory activity and selectivity (in words) [1]: strong and selective JAK3 kinase inhibitory activity; IC50 [3]: 1.06 µM; IC50 ([5]; 72 hours): 31.3 nM
CN1CCN(c2ccc(Nc3ncc(Cl)c(O[C@@H]4CO[C@H]5[C@@H]4OC[C@H]5O)n3)cc2)CC1 [LS 4-144]	0.0848							
CN1CCN(C2CCN(c3ccc(Nc4ncc(Cl)c(O[C@H]5CO[C@H]6[C@@H]5OC[C@H]6O)n4)cc3Cl)CC2)CC1 [LS 3-96]				8.16				
C=CC(=O)Nc1cc(Nc2ncc(Cl)c(O[C@@H]3CO[C@H]4[C@@H]3OC[C@H]4F)n2)ccc1N(C)CCN(C)C [LS 6-88]		87.1			930			IC50 [1]: 0.00135 µM and 0.00153 µM; JAK3 kinase inhibitory activity and selectivity (in words) [1]: strong and selective JAK3 kinase inhibitory activity; IC50 [3]: 1.72 µM; IC50 ([5]; 72 hours): 50.3 nM; IC50 ([8]; 72 hours): 410 nM
CN1CCN(C2CCN(c3ccc(Nc4ncc(Cl)c(O[C@@H]5CO[C@H]6[C@@H]5OC[C@H]6O)n4)c(Cl)c3)CC2)CC1 [LS 4-148]	6.47							
COc1cc(N2CCC(N3CCN(C)CC3)CC2)ccc1Nc1ncc(Cl)c(O[C@H]2CO[C@H]3[C@@H]2OC[C@H]3O)n1 [LS 4-100]								IC50 ([1]; ATP concentration Km, in μM): > 10 µM
C=CC(=O)Nc1cc(Nc2ncc(Cl)c(O[C@@H]3CO[C@H]4[C@@H]3OCC4(F)F)n2)ccc1N(C)CCN(C)C [LS 6-105]		4.22			272			IC50 [1]: 0.00113 µM and 0.00132 µM; JAK3 kinase inhibitory activity and selectivity (in words) [1]: strong and selective JAK3 kinase inhibitory activity; IC50 [3]: 0.589 µM; IC50 ([5]; 72 hours): 33.8 nM; IC50 ([8]; 72 hours): 345 nM
CN1CCN(c2ccc(Nc3ncc(Cl)c(O[C@@H]4CO[C@H]5[C@@H]4OC[C@H]5O)n3)cc2Cl)CC1 [LS 4-142]	0.0495							
